Results from PubChem BioAssay (NCI).
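Five compound concentrations were applied to cells in 96-well plates for 48 hours; endpoints were derived by simple linear interpolation of the resulting dose-response curve. GI50 is the concentration that inhibits growth by half. TGI marks complete inhibition of growth.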

Key:
Test in all cases: growth of human tumour cells (NCI), 48 h
SK-MEL-2 melanoma = system: SK-MEL-2 melanoma
NCI-H460 lung = system: NCI-H460 lung
MCF7 breast = system: MCF7 breast
HCC-2998 colon = system: HCC-2998 colon
SF-295 CNS = system: SF-295 CNS
UACC-62 melanoma = system: UACC-62 melanoma
MDA-MB-435 = system: MDA-MB-435
HL-60(TB) leukemia = system: HL-60(TB) leukemia
SF-539 CNS = system: SF-539 CNS
A498 renal = system: A498 renal
HS 578T breast = system: HS 578T breast
IGROV1 ovarian = system: IGROV1 ovarian
NCI/ADR-RES ovarian = system: NCI/ADR-RES ovarian
M14 melanoma = system: M14 melanoma
ACHN renal = system: ACHN renal
786-0 renal = system: 786-0 renal
HCT-15 colon = system: HCT-15 colon
HT29 colon = system: HT29 colon
MDA-MB-231 breast = system: MDA-MB-231 breast
OVCAR-3 ovarian = system: OVCAR-3 ovarian
SNB-19 CNS = system: SNB-19 CNS
SR leukemia = system: SR leukemia
SNB-75 CNS = system: SNB-75 CNS
UO-31 renal = system: UO-31 renal
DU-145 prostate = system: DU-145 prostate
T-47D breast = system: T-47D breast
OVCAR-8 ovarian = system: OVCAR-8 ovarian
UACC-257 melanoma = system: UACC-257 melanoma
U251 CNS = system: U251 CNS
BT-549 breast = system: BT-549 breast
OVCAR-5 ovarian = system: OVCAR-5 ovarian
OVCAR-4 ovarian = system: OVCAR-4 ovarian
MALME-3M melanoma = system: MALME-3M melanoma
KM12 colon = system: KM12 colon
CAKI-1 renal = system: CAKI-1 renal
SW-620 colon = system: SW-620 colon
COLO 205 colon = system: COLO 205 colon
HCT-116 colon = system: HCT-116 colon
SK-OV-3 ovarian = system: SK-OV-3 ovarian
SN12C renal = system: SN12C renal
TK-10 renal = system: TK-10 renal
K-562 leukemia = system: K-562 leukemia
SF-268 CNS = system: SF-268 CNS
HOP-92 NSCLC = system: HOP-92 NSCLC
LOX IMVI melanoma = system: LOX IMVI melanoma
SK-MEL-28 melanoma = system: SK-MEL-28 melanoma
HOP-62 NSCLC = system: HOP-62 NSCLC
NCI-H23 lung = system: NCI-H23 lung
RXF 393 renal = system: RXF 393 renal
PC-3 prostate = system: PC-3 prostate
NCI-H522 lung = system: NCI-H522 lung

NCCCOc1cc2ccccc2cc1C(=O)NCCOc1nc2ccccc2cc1C(=O)Nc1ccc(Cl)cc1O
GI50 (SK-MEL-2 melanoma): 1870 nM
TGI (SK-MEL-2 melanoma): 3570 nM
GI50 (NCI-H460 lung): 482 nM
TGI (NCI-H460 lung): 1870 nM
GI50 (MCF7 breast): 295 nM
TGI (MCF7 breast): 1920 nM
GI50 (HCC-2998 colon): 1670 nM
TGI (HCC-2998 colon): 3180 nM
GI50 (SF-295 CNS): 1060 nM
TGI (SF-295 CNS): 2470 nM
GI50 (UACC-62 melanoma): 270 nM
TGI (UACC-62 melanoma): 2030 nM
GI50 (MDA-MB-435): 1000 nM
TGI (MDA-MB-435): 2370 nM
GI50 (HL-60(TB) leukemia): 621 nM
TGI (HL-60(TB) leukemia): 2370 nM
GI50 (SF-539 CNS): 1120 nM
TGI (SF-539 CNS): 2340 nM
GI50 (A498 renal): 342 nM
TGI (A498 renal): 3450 nM
GI50 (HS 578T breast): 1630 nM
TGI (HS 578T breast): 3890 nM
GI50 (IGROV1 ovarian): 1220 nM
TGI (IGROV1 ovarian): 2800 nM
GI50 (NCI/ADR-RES ovarian): 1730 nM
TGI (NCI/ADR-RES ovarian): 3350 nM
GI50 (M14 melanoma): 1310 nM
TGI (M14 melanoma): 2750 nM
GI50 (ACHN renal): 1070 nM
TGI (ACHN renal): 2300 nM
GI50 (786-0 renal): 1170 nM
TGI (786-0 renal): 2490 nM
GI50 (HCT-15 colon): 818 nM
TGI (HCT-15 colon): 2110 nM
GI50 (HT29 colon): 1500 nM
TGI (HT29 colon): 3120 nM
GI50 (MDA-MB-231 breast): 1170 nM
TGI (MDA-MB-231 breast): 2460 nM
GI50 (OVCAR-3 ovarian): 882 nM
TGI (OVCAR-3 ovarian): 2250 nM
GI50 (SNB-19 CNS): 1310 nM
TGI (SNB-19 CNS): 2760 nM
GI50 (SR leukemia): 224 nM
TGI (SR leukemia): 2110 nM
GI50 (SNB-75 CNS): 1100 nM
TGI (SNB-75 CNS): 2300 nM
GI50 (UO-31 renal): 1190 nM
TGI (UO-31 renal): 2820 nM
GI50 (DU-145 prostate): 1340 nM
TGI (DU-145 prostate): 2670 nM
GI50 (T-47D breast): 517 nM
TGI (T-47D breast): 2390 nM
GI50 (OVCAR-8 ovarian): 1250 nM
TGI (OVCAR-8 ovarian): 3100 nM
GI50 (UACC-257 melanoma): 678 nM
TGI (UACC-257 melanoma): 2110 nM
GI50 (U251 CNS): 1050 nM
TGI (U251 CNS): 2410 nM
GI50 (BT-549 breast): 1370 nM
TGI (BT-549 breast): 3030 nM
GI50 (OVCAR-5 ovarian): 1500 nM
TGI (OVCAR-5 ovarian): 2830 nM
GI50 (OVCAR-4 ovarian): 75.5 nM
TGI (OVCAR-4 ovarian): 1820 nM
GI50 (MALME-3M melanoma): 1280 nM
TGI (MALME-3M melanoma): 2790 nM
GI50 (KM12 colon): 1050 nM
TGI (KM12 colon): 2400 nM
GI50 (CAKI-1 renal): 1330 nM
TGI (CAKI-1 renal): 2930 nM
GI50 (SW-620 colon): 82.9 nM
TGI (SW-620 colon): 2060 nM
GI50 (COLO 205 colon): 1100 nM
TGI (COLO 205 colon): 2380 nM
GI50 (HCT-116 colon): 252 nM
TGI (HCT-116 colon): 2170 nM
GI50 (SK-OV-3 ovarian): 1340 nM
TGI (SK-OV-3 ovarian): 2630 nM
GI50 (SN12C renal): 1330 nM
TGI (SN12C renal): 2740 nM
GI50 (TK-10 renal): 1300 nM
TGI (TK-10 renal): 2760 nM
GI50 (K-562 leukemia): 544 nM
TGI (K-562 leukemia): 3300 nM
GI50 (SF-268 CNS): 1120 nM
TGI (SF-268 CNS): 2690 nM
GI50 (HOP-92 NSCLC): 126 nM
TGI (HOP-92 NSCLC): 1320 nM
GI50 (LOX IMVI melanoma): 1070 nM
TGI (LOX IMVI melanoma): 2390 nM
GI50 (SK-MEL-28 melanoma): 1300 nM
TGI (SK-MEL-28 melanoma): 2570 nM
GI50 (HOP-62 NSCLC): 721 nM
TGI (HOP-62 NSCLC): 2370 nM
GI50 (NCI-H23 lung): 941 nM
TGI (NCI-H23 lung): 2410 nM
GI50 (RXF 393 renal): 1530 nM
TGI (RXF 393 renal): 3020 nM
GI50 (PC-3 prostate): 269 nM
TGI (PC-3 prostate): 1990 nM
GI50 (NCI-H522 lung): 1340 nM
TGI (NCI-H522 lung): 2840 nM
